# Read-outs that look alike come from different tables or passages of the source.
# Key:
# [1] = cited from earlier work
# cells = conditions: cited from earlier work
# [2] = test not named; cited from earlier work
# aquatic life = conditions: in vivo; cited from earlier work
# [3] = Stability of dye in gel electrophoresis buffer (room temperature, microwave heating); format: physicochemical
# [4] = Hydrolytic and thermal stability for pre-cast gel preparation and storage; format: physicochemical
# Excerpt: In a gel electrophoresis application, an agarose gel may be prepared by heating (via microwave, for example) a suspension of agarose powder in an electrophoresis buffer, such as lithium borate buffer, thereby producing a hot agarose solution, pouring the solution onto a slab, and cooling the solution, thereby producing a useful gel. […] For example, in a pre-cast gel staining application, SYBR Green I dye is generally combined with an agarose solution after the initial agarose suspension has been heated and the resulting agarose solution has been cooled as much as possible. Combining the SYBR Green I dye with the agarose solution in this manner may be a delicate task, as if the temperature of the agarose solution is too high, the dye my decompose, and if the temperature of the agarose solution is too low, the agarose solution may gel up such that the dye and the solution are inadequately combined or mixed. Further by way of example, in a pre-cast gel staining application, a pre-cast gel prepared with SYBR Green I is generally used within 24 hours, as it may lose utility thereafter. […] This dye may offer sufficient to exceptional stability, as well as low or minimal background fluorescence relative to EB and low or minimal toxicity relative to EB, as further described below.
# nucleic acid = conditions: cited from earlier work
# [5] = pre-cast gel containing the dye
compound,measurement,setting,value
CCCN(CCCN(C)C)c1cc(/C=C2/Sc3ccccc3N2C)c2ccccc2[n+]1-c1ccccc1 [SYBR Green I],time within which pre-cast gel is used before losing utility,[1]; [5],≤ 24 h
same,cytotoxicity,cells,cytotoxic at relatively high concentrations
"CC[n+]1c(-c2ccccc2)c2cc(N)ccc2c2ccc(N)cc21 [EB, ethidium bromide]",hydrolytic and thermal stability for preparation of a pre-cast gel,"[1]; reference dyes, general statement","sufficiently stable, both hydrolytically and thermally"
same,mutagenicity,[2],powerful mutagen
Nc1ccc2c(c1)c(-c1ccccc1)[n+](CCCCCC(=O)NCCCOCCOCCOCCCNC(=O)CCCCC[n+]1c(-c3ccccc3)c3cc(N)ccc3c3ccc(N)cc31)c1cc(N)ccc21.[I-].[I-] [GelRed],safety to aquatic life,aquatic life,safe to aquatic life
same,cytotoxicity,cells,noncytotoxic
Nc1ccc2c(c1)c(-c1ccccc1)[n+](CCCCCC(=O)NCCCOCCOCCOCCCNC(=O)CCCCC[n+]1c(-c3ccccc3)c3cc(N)ccc3c3ccc(N)cc31)c1cc(N)ccc21 [Dye No. 35],time heated in a microwave oven without decomposition,[3]; in TBE buffer,at least 10 minutes
same,time stable in electrophoresis buffer,"[3]; lithium borate buffer, room temperature",at least 6 months
same,hydrolytic and thermal stability for preparation of a pre-cast gel,[4],sufficient hydrolytic and thermal stability
same,storage of pre-cast gel without loss of performance,[4]; [5],at least 3 months
"CN(C)c1ccc2cc3ccc(N(C)C)cc3nc2c1 [AO, Acridine orange]",affinity for nucleic acid,nucleic acid,very low
CN(C)c1ccc2cc3ccc(N(C)C)cc3[n+](CCCCCC(=O)NCCCOCCOCCOCCCNC(=O)CCCCC[n+]3c4cc(N(C)C)ccc4cc4ccc(N(C)C)cc43)c2c1.[I-].[I-] [GelGreen],safety to aquatic life,aquatic life,safe to aquatic life
same,cytotoxicity,cells,noncytotoxic
CCCN1C=C/C(=C\c2sc3ccccc3[n+]2C)c2ccccc21 [SYBR Safe],safety to aquatic life,aquatic life,safe to aquatic life
same,cytotoxicity,cells,cytotoxic at relatively high concentrations

# Reference: patent US8877437B1, “Methods of using dyes in association with nucleic acid staining or detection” (Biotium, Inc., priority 2009, dated 2014)
